{"source": "paper PMC8646129", "about": "(Biochemistry and Biophysics Reports, 2021)", "biological_target": "T1, TMEM16B (Mus musculus, UniProt Q8CFW1)", "T1 sequence (Q8CFW1 1-1002)": "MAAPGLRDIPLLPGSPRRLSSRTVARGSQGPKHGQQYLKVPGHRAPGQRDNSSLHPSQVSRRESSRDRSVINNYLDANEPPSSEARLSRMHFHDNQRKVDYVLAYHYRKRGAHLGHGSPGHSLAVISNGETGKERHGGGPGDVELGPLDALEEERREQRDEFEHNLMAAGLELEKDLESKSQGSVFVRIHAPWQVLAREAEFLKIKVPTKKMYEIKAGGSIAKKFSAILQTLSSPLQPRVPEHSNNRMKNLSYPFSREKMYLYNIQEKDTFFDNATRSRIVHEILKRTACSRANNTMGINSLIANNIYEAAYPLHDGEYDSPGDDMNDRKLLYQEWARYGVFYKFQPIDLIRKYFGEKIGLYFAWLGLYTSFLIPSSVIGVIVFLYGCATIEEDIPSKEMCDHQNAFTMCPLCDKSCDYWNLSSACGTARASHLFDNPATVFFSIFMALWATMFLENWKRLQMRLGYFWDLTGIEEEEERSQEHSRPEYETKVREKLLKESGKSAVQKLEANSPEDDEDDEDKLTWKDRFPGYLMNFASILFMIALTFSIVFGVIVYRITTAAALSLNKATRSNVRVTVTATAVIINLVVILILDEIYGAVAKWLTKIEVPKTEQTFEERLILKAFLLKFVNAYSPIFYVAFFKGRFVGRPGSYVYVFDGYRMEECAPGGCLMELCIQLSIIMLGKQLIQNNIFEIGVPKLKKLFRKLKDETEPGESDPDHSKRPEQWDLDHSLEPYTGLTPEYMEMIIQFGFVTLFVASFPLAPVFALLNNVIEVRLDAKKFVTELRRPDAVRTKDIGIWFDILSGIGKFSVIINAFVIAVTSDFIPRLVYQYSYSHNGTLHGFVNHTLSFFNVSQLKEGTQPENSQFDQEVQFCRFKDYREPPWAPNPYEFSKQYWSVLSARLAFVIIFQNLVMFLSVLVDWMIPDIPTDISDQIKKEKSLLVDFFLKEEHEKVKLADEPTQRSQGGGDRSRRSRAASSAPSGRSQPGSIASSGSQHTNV", "experiment": "whole-cell patch clamp of transfected HEK293 cells", "format": "cell-based", "data": [{"smiles": "O=C(NC1(c2ccccc2)CC1)c1c(CN2CCC(N3CCCCC3)CC2)c(-c2cccc(C(F)(F)F)c2)nc2cc(Br)ccc12", "note": "[GSKb, GSK2193874]", "values": [{"measurement": "EC50", "result": 24.2, "unit": "nM"}]}]}
